# Results as given in patent US9771372B2, “Compounds useful as S100-inhibitors” (Active Biotech AB, priority 2014, dated 2017).
# Biological target: T1, interaction between biotinylated human S100A9 and human RAGE-Fc (Homo sapiens, UniProt P06702)
# T1 construct: made in house; host or cells: E. coli BL21(DE3)/pET1120 (pLR757)
# T1 sequence (P06702 1-114): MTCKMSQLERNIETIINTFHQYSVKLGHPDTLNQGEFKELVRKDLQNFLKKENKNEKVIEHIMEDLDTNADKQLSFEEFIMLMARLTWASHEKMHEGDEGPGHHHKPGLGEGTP
# Assay: AlphaScreen inhibition assay, Biot-hS100A9:hRAGE-Fc (S100A9-RAGE inhibition assay)
# Assay type: binding
# Conditions: biot-hS100A9 and rhRAGE-Fc, Ca2+ and Zn2+ in buffer
# Method in brief: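 Biotinylated human S100A9, in HBS-P with CaCl2 and ZnCl2, preincubated 1 h at room temperature in the dark with compound (final DMSO ≤1.25%), then combined with rhRAGE-Fc on protein A Acceptor beads plus streptavidin Donor beads (20 μg/mL each). Protein levels batch-dependent; percent inhibition from AlphaScreen signal vs DMSO-only control.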
row,SMILES,IC50
1,"O=C(CCC1CCCCN1)NC1(C(F)(F)F)C(=O)Nc2nc3cc(Cl)c(Cl)cc3n21 (stereo not shown) [Example 69, N-[10,11-dichloro-4-oxo-3-(trifluoromethyl)-2,5,7-triazatricyclo[6.4.0.0^2,6]dodeca-1(12),6,8,10-tetraen-3-yl]-3-(piperidin-2-yl)propanamide]",4900 nM
2,"CN(C)c1cccc(C(=O)NC2(C(F)(F)F)C(=O)Nc3nc4cc(Cl)c(Cl)cc4n32)n1 (stereo not shown) [Example 65, N-[10,11-dichloro-4-oxo-3-(trifluoromethyl)-2,5,7-triazatricyclo[6.4.0.0^2,6]dodeca-1(12),6,8,10-tetraen-3-yl]-6-(dimethylamino)pyridine-2-carboxamide]",2200 nM
3,"CC(C)CC(=O)N1CCC(C(=O)NC2(C(F)(F)F)C(=O)Nc3nc4cc(Cl)c(Cl)cc4n32)CC1 (stereo not shown) [Example 45, N-[10,11-dichloro-4-oxo-3-(trifluoromethyl)-2,5,7-triazatricyclo[6.4.0.0^2,6]dodeca-1(12),6,8,10-tetraen-3-yl]-1-(3-methylbutanoyl)piperidine-4-carboxamide]",3000 nM
4,"Cc1cc2nc3n(c2cc1C)C(NC(=O)[C@H](C)OCC1CCCC1)(C(F)(F)F)C(=O)N3 (single isomer, unassigned) [Example 215b]",2660 nM
5,"O=C(NC1(C(F)(F)F)C(=O)Nc2nc3cc(Cl)c(Cl)cc3n21)C1CCN(C(=O)CC(F)(F)F)CC1 (stereo not shown) [Example 46, N-[10,11-dichloro-4-oxo-3-(trifluoromethyl)-2,5,7-triazatricyclo[6.4.0.0^2,6]dodeca-1(12),6,8,10-tetraen-3-yl]-1-(3,3,3-trifluoropropanoyl)piperidine-4-carboxamide]",3800 nM
6,"Cc1cc2nc3n(c2cc1C)C(NC(=O)[C@@H](C)CC1CCCC1)(C(F)(F)F)C(=O)N3 (mixture of isomers) [Example 145, (2S)-3-cyclopentyl-N-[10,11-dimethyl-4-oxo-3-(trifluoromethyl)-2,5,7-triazatricyclo[6.4.0.0^2,6]dodeca-1(8),6,9,11-tetraen-3-yl]-2-methylpropanamide]",3120 nM
7,"Cc1ccc2c(nc3n2C(NC(=O)CCC2CCCC2)(C(F)(F)F)C(=O)N3)c1C (stereo not shown) [Example 80, 3-cyclopentyl-N-[9,10-dimethyl-4-oxo-3-(trifluoromethyl)-2,5,7-triazatricyclo[6.4.0.0^2,6]-dodeca-1(12),6,8,10-tetraen-3-yl]propanamide]",7400 nM
8,"O=C(CN1CCOCC1)NC1(C(F)(F)F)C(=O)Nc2nc3cc(Cl)c(Cl)cc3n21 (stereo not shown) [Example 60, N-[10,11-dichloro-4-oxo-3-(trifluoromethyl)-2,5,7-triazatricyclo[6.4.0.0^2,6]dodeca-1(12),6,8,10-tetraen-3-yl]-2-(morpholin-4-yl)acetamide]",4000 nM
9,"Cc1cc2nc3n(c2cc1C)C(NC(=O)[C@@H](O)c1ccccc1)(C(F)(F)F)C(=O)N3 (single isomer, unassigned) [Example 146a]",5390 nM
10,"Cc1cc2nc3n(c2cc1C)C(NC(=O)CCC1CCCC1)(C(F)(F)F)C(=O)N3 (single isomer, unassigned) [Example 218a, 3-cyclopentyl-N-[10,11-dimethyl-4-oxo-3-(trifluoromethyl)-2,5,7-triazatricyclo[6.4.0.0^2,6]dodeca-1(12),6,8,10-tetraen-3-yl]propanamide]",3130 nM
11,"Cc1cc2nc3n(c2cc1C)C(NC(=O)c1cccc(NC2CCCCC2)n1)(C(F)(F)F)C(=O)N3 (stereo not shown) [Example 35, 6-(cyclohexylamino)-N-[10,11-dimethyl-4-oxo-3-(trifluoromethyl)-2,5,7-triazatricyclo-[6.4.0.0^2,6]dodeca-1(12),6,8,10-tetraen-3-yl]pyridine-2-carboxamide]",2700 nM
12,"O=C(NC1(C(F)(F)F)C(=O)Nc2nc3cc(Cl)c(Cl)cc3n21)C1(F)CNC1 (stereo not shown) [Example 103, N-[10,11-dichloro-4-oxo-3-(trifluoromethyl)-2,5,7-triazatricyclo[6.4.0.0^2,6]dodeca-1(8),6,9,11-tetraen-3-yl]-3-fluoroazetidine-3-carboxamide]",3970 nM
13,"O=C(CCC1CCCC1)NC1(C(F)(F)F)C(=O)Nc2nc3ccccc3n21 (stereo not shown) [Example 9, 3-cyclopentyl-N-[4-oxo-3-(trifluoromethyl)-2,5,7-triazatricyclo[6.4.0.0^2,6]dodeca-1(8),6,9,11-tetraen-3-yl]propanamide]",10200 nM
14,"Cc1cc2nc3n(c2cc1C)C(NC(=O)CCc1c(Cl)cccc1Cl)(C(F)(F)F)C(=O)N3 (stereo not shown) [Example 29, 3-(2,6-dichlorophenyl)-N-[10,11-dimethyl-4-oxo-3-(trifluoromethyl)-2,5,7-triaza-tricyclo[6.4.0.0^2,6]dodeca-1(8),6,9,11-tetraen-3-yl]propanamide]",5400 nM
15,"O=C(NC1(C(F)(F)F)C(=O)Nc2nc3cc(Cl)c(Cl)cc3n21)C1CCN(C(=O)C2CCCC2)C1 (racemic) [Example 50, (rac).1-cyclopentanecarbonyl-N-[10,11-dichloro-4-oxo-3-(trifluoromethyl)-2,5,7-triaza-tricyclo[6.4.0.0^2,6]dodeca-1(12),6,8,10-tetraen-3-yl]pyrrolidine-3-carboxamide]",2300 nM
16,"O=C(NC1(C(F)(F)F)C(=O)Nc2nc3cc(Cl)c(Cl)cc3n21)c1cc(Cl)cc(Cl)c1 (stereo not shown) [Example 57, 3,5-dichloro-N-[10,11-dichloro-4-oxo-3-(trifluoromethyl)-2,5,7-triazatricyclo-[6.4.0.0^2,6]dodeca-1(12),6,8,10-tetraen-3-yl]benzamide]",2800 nM

# These reach a lower IC50. Values come first.
row,IC50,SMILES
1,2000 nM,"CCNc1cccc(C(=O)NC2(C(F)(F)F)C(=O)Nc3nc4cc(C)c(C)cc4n32)n1 (stereo not shown) [Example 67, N-[10,11-dimethyl-4-oxo-3-(trifluoromethyl)-2,5,7-triazatricyclo[6.4.0.0^2,6]dodeca-1(12),6,8,10-tetraen-3-yl]-6-(ethylamino)pyridine-2-carboxamide]"
2,1610 nM,"O=C(CCC1(O)CCCC1)NC1(C(F)(F)F)C(=O)Nc2nc3cc(Cl)c(Cl)cc3n21 (stereo not shown) [Example 88, N-[10,11-dichloro-4-oxo-3-(trifluoromethyl)-2,5,7-triazatricyclo[6.4.0.0^2,6]dodeca-1(8),6,9,11-tetraen-3-yl]-3-(1-hydroxycyclopentyl)propanamide]"
3,1450 nM,"COC[C@H](C)Nc1cccc(C(=O)NC2(C(F)(F)F)C(=O)Nc3nc4c(C#N)c(Cl)ccc4n32)n1 (mixture of isomers) [Example 140, N-[10-chloro-9-cyano-4-oxo-3-(trifluoromethyl)-2,5,7-triaza-tricyclo[6.4.0.0^2,6]dodeca-1(8),6,9,11-tetraen-3-yl]-6-{[(2S)-1-methoxypropan-2-yl]amino}-pyridine-2-carboxamide]"
4,1300 nM,"CCNc1cccc(C(=O)NC2(C(F)(F)F)C(=O)Nc3nc4cc(Cl)c(Cl)cc4n32)n1 (stereo not shown) [Example 70, N-[10,11-dichloro-4-oxo-3-(trifluoromethyl)-2,5,7-triazatricyclo[6.4.0.0^2,6]dodeca-1(12),6,8,10-tetraen-3-yl]-6-(ethylamino)pyridine-2-carboxamide]"
5,1120 nM,"CC(=O)c1cc(Cl)cc2c1nc1n2C(NC(=O)CCC2CCCC2)(C(F)(F)F)C(=O)N1 (stereo not shown) [Example 182, N-[9-acetyl-11-chloro-4-oxo-3-(trifluoromethyl)-2,5,7-triazatricyclo[6.4.0.0^2,6]dodeca-1(12),6,8,10-tetraen-3-yl]-3-cyclopentylpropanamide]"
6,1080 nM,"COC(=O)c1cccc(C(=O)NC2(C(F)(F)F)C(=O)Nc3nc4cc(Cl)c(Cl)cc4n32)n1 (stereo not shown) [Example 95, methyl 6-{[10,11-dichloro-4-oxo-3-(trifluoromethyl)-2,5,7-triazatricyclo[6.4.0.0^2,6]dodeca-1(8),6,9,11-tetraen-3-yl]carbamoyl}pyridine-2-carboxylate]"
7,700 nM,"Cc1ccc(-c2cccc3c2nc2n3C(NC(=O)CCC3CCCC3)(C(F)(F)F)C(=O)N2)cc1 (stereo not shown) [Example 202, 3-cyclopentyl-N-[9-(4-methylphenyl)-4-oxo-3-(trifluoromethyl)-2,5,7-triazatricyclo[6.4.0.0^2,6]dodeca-1(12),6,8,10-tetraen-3-yl]propanamide]"
8,610 nM,"Cc1cc2nc3n(c2cc1C)C(NC(=O)[C@@H](C)Oc1cccc(Cl)c1)(C(F)(F)F)C(=O)N3 (single isomer, unassigned) [Example 212a]"
9,500 nM,"O=C(CCC1CCCC1)NC1(C(F)(F)F)C(=O)Nc2nc3cc(Cl)c(Cl)cc3n21 (stereo not shown) [Example 39, 3-cyclopentyl-N-[10,11-dichloro-4-oxo-3-(trifluoromethyl)-2,5,7-triazatricyclo[6.4.0.0^2,6]-dodeca-1(12),6,8,10-tetraen-3-yl]propanamide]"
10,400 nM,"Cc1cc2nc3n(c2cc1C)C(NC(=O)CCCC1CCCC1)(C(F)(F)F)C(=O)N3 (stereo not shown) [Example 19, 4-cyclopentyl-N-[10,11-dimethyl-4-oxo-3-(trifluoromethyl)-2,5,7-triazatricyclo-[6.4.0.0^2,6]dodeca-1(8),6,9,11-tetraen-3-yl]butanamide]"
11,230 nM,"O=C(CCC1CCCC1)NC1(C(F)(F)F)C(=O)Nc2nc3cc(Cl)c(Cl)cc3n21 (single isomer, unassigned) [Example 219b, 3-cyclopentyl-N-[10,11-dichloro-4-oxo-3-(trifluoromethyl)-2,5,7-triazatricyclo[6.4.0.0^2,6]dodeca-1(12),6,8,10-tetraen-3-yl]propanamide]"
12,200 nM,"COCCNc1cccc(C(=O)NC2(C(F)(F)F)C(=O)Nc3nc4cc(Cl)c(Cl)cc4n32)n1 (stereo not shown) [Example 71, N-[10,11-dichloro-4-oxo-3-(trifluoromethyl)-2,5,7-triazatricyclo[6.4.0.0^2,6]dodeca-1(12),6,8,10-tetraen-3-yl]-6-[(2-methoxyethyl)amino]pyridine-2-carboxamide]"
